Assay results as given in patent publication US9062002B2, “Substituted pyridine derivatives as FabI inhibitors” (Aurigene Discovery Technologies Limited, priority 2011, dated 2015).
In brackets after ≈: the same amount, converted by molar mass.

How the values were obtained:
[1] = Metabolic stability study in mouse liver microsomes; assay type: in vitro ADME; conditions: 1 μM, 37° C.
Procedure: The above selected compounds have protected mice from infection at ED50 doses. Metabolic Stability Study: In vitro metabolic stability of the compounds was done in mouse liver microsomes prepared in house as per standard protocol. Compounds were tested at 1 μM concentration. Compounds were incubated for 15 and 60 minutes at 37° C. with 100 rpm in shaker bath. After the incubation samples were analysed by LC/MS (API-4000). Respective control (Propranalol) was included in the study.

[2] = tested on: MRSE; assay: MIC by broth microdilution method; assay type: cell-based; conditions: Staphylococcus epidermidis, MRSA / MRSE; MRSE, broth microdilution; read-out: MIC Vs MRSA (μg/ml) MRSE
[3] = tested on: MSSA; assay: MIC by broth microdilution method; assay type: cell-based; conditions: Staphylococcus aureus, MRSA / MSSA; MSSA, broth microdilution; read-out: MIC Vs MRSA (μg/ml) MSSA
[4] = tested on: MRSA; assay: MIC by broth microdilution method; assay type: cell-based; conditions: Staphylococcus aureus; MRSA, broth microdilution; read-out: MIC Vs MRSA (μg/ml) MRSA

Cc1cnc(CC2=CCN(C(=O)/C=C/c3cnc4c(c3)CCC(=O)N4)CC2)s1 [Compound 57]
Percentage of compound remained after 15 min [1]: 86.8%
Percentage of compound remained after 60 min [1]: 57.1%

O=C1CNCc2cc(/C=C/C(=O)N3CC=C(Cc4cccs4)CC3)cnc2N1 [Compound 92, (E)-7-(3-oxo-3-(4-(thiophen-2-ylmethyl)-5,6-dihydropyridin-1(2H)-yl)prop-1-en-1-yl)-4,5-dihydro-1H-pyrido[2,3-e][1,4]diazepin-2(3H)-one]
MIC [2]: 0.25 µg/mL (≈ 0.634 µM)
MIC [3]: 0.12 µg/mL (≈ 0.304 µM)
MIC [4]: 0.25 µg/mL (≈ 0.634 µM)

CC(=O)N1CCC2(CC1)Cc1cc(/C=C/C(=O)N3CC=C(Cc4cccs4)CC3)cnc1NC2=O [Compound 96, (E)-1′-acetyl-6-(3-oxo-3-(4-(thiophen-2-ylmethyl)-5,6-dihydropyridin-1(2H)-yl)prop-1-en-1-yl)-1H-spiro[[1,8]naphthyridine-3,4′-piperidin]-2(4H)-one]
MIC [2]: 16 µg/mL (≈ 32.6 µM)
MIC [3]: 8 µg/mL (≈ 16.3 µM)
MIC [4]: 8 µg/mL (≈ 16.3 µM)

O=C(/C=C/c1cnc2c(c1)CC1(CCN(C(=O)CO)CC1)C(=O)N2)N1CC=C(Cc2cccs2)CC1 [Compound 138, (E)-1′-(2-hydroxyacetyl)-6-(3-oxo-3-(4-(thiophen-2-ylmethyl)-5,6-dihydropyridin-1(2H)-yl)prop-1-en-1-yl)-1H-spiroa[[1,8]naphthyridine-3,4′-piperidin]-2(4H)-one]
Percentage of compound remained after 15 min [1]: 44.3%
Percentage of compound remained after 60 min [1]: 10.2%

NC(=O)N1CCC2(CC1)Cc1cc(/C=C/C(=O)N3CC=C(Cc4cccs4)CC3)cnc1NC2=O [Compound 139, (E)-2-oxo-6-(3-oxo-3-(4-(thiophen-2-ylmethyl)-5,6-dihydropyridin-1(2H)-yl)prop-1-en-1-yl)-2,4-dihydro-1H-spiro[[1,8]naphthyridine-3,4′-piperidine]-1′-carboxamide]
Percentage of compound remained after 15 min [1]: 21.6%
Percentage of compound remained after 60 min [1]: 7.3%

CC(C)CC(=O)N1CCC2(CC1)Cc1cc(/C=C/C(=O)N3CC=C(Cc4cccs4)CC3)cnc1NC2=O [Compound 140, (E)-1′-(3-methylbutanoyl)-6-(3-oxo-3-(4-(thiophen-2-ylmethyl)-5,6-dihydropyridin-1(2H)-yl)prop-1-en-1-yl)-1H-spiro[[1,8]naphthyridine-3,4′-piperidin]-2(4H)-one]
Percentage of compound remained after 15 min [1]: 1.9%
Percentage of compound remained after 60 min [1]: 1.7%

O=C1CCNc2cc(/C=C/C(=O)N3CC=C(Cc4nccs4)CC3)cnc2N1 [Compound 143, (E)-8-(3-oxo-3-(4-(thiazol-2-ylmethyl)-5,6-dihydropyridin-1(2H)-yl)prop-1-en-1-yl)-2,3-dihydro-1H-pyrido[2,3-b][1,4]diazepin-4(5H)-one]
Percentage of compound remained after 15 min [1]: 27.5%
Percentage of compound remained after 60 min [1]: 15.8%

O=C1CCc2cc(/C=C/C(=O)N3CC=C(Cc4cncs4)CC3)cnc2N1 [Compound 145]
Percentage of compound remained after 15 min [1]: 83.3%
Percentage of compound remained after 60 min [1]: 60.2%

CN1CCC2(CC1)Cc1cc(/C=C/C(=O)N3CC=C(Cc4cccs4)CC3)cnc1NC2=O [Compound 146, (E)-1′-methyl-6-(3-oxo-3-(4-(thiophen-2-ylmethyl)-5,6-dihydropyridin-1(2H)-yl)prop-1-en-1-yl)-1H-spiro[[1,8]naphthyridine-3,4′-piperidin]-2(4H)-one]
Percentage of compound remained after 15 min [1]: 57.9%
Percentage of compound remained after 60 min [1]: 15.8%

O=C(/C=C/c1cnc2c(c1)CN(CCN1CCC3(CC1)COC3)C(=O)N2)N1CC=C(Cc2cccs2)CC1 [Compound 147, (E)-3-(2-(2-oxa-7-azaspiro[3.5]nonan-7-yl)ethyl)-6-(3-oxo-3-(4-(thiophen-2-ylmethyl)-5,6-dihydropyridin-1(2H)-yl)prop-1-en-1-yl)-3,4-dihydropyrido[2,3-d]pyrimidin-2(1H)-one]
Percentage of compound remained after 15 min [1]: 4.0%
Percentage of compound remained after 60 min [1]: 2.2%
